Measured values from the NIST ThermoML archive (doi:10.1016/j.tca.2014.11.009).

Test: xn = mol fraction of the nth substance listed
Conditions: 100 kPa, Liquid; for speed of sound: Frequency=3 MHz, Sing-around technique in a fixed-path interferometer; for mass density: Vibrating tube method

O=Cc1ccco1 [2-furaldehyde] + CCC(C)O
Conditions	mass density, 283.15 K [kg/m3]	mass density, 293.15 K [kg/m3]	mass density, 303.15 K [kg/m3]	mass density, 313.15 K [kg/m3]	speed of sound, 283.15 K [m/s]	speed of sound, 293.15 K [m/s]	speed of sound, 303.15 K [m/s]	speed of sound, 313.15 K [m/s]
x1 = 0.0501	831.27	822.97	814.4	805.5	1279.1	1242.7	1206.1	1169.4
x1 = 0.1001	847.35	838.83	830.06	820.99	1289.1	1252.7	1216.1	1179.5
x1 = 0.1507	863.92	855.21	846.24	837.01	1299.3	1263.1	1226.6	1190
x1 = 0.2001	880.27	871.37	862.24	852.86	1309.5	1273.3	1236.9	1200.5
x1 = 0.3001	913.96	904.72	895.3	885.68	1330.4	1294.4	1258.3	1222.1
x1 = 0.3501	931.13	921.74	912.18	902.46	1341.2	1305.4	1269.3	1233.2
x1 = 0.4001	948.49	938.98	929.33	919.51	1352	1316.4	1280.4	1244.1
x1 = 0.4501	966.01	956.37	946.59	936.66	1363.4	1327.8	1291.9	1256
x1 = 0.5	983.65	973.9	964.03	954.03	1375.1	1339.4	1303.5	1267.6
x1 = 0.55	1001.41	991.58	981.69	971.7	1387.3	1351.4	1315.5	1279.6
x1 = 0.6	1019.4	1009.48	999.51	989.44	1399.4	1363.4	1327.4	1291.5
x1 = 0.6501	1037.63	1027.6	1017.53	1007.37	1411.8	1375.7	1339.6	1303.6
x1 = 0.8001	1093.43	1083.14	1072.78	1062.25	1448.5	1412	1375.6	1339.5
x1 = 0.8999	1131.48	1121	1110.45	1099.81	1472.1	1435.7	1399.2	1363.1
x1 = 1	1169.93	1159.33	1148.69	1138.01	1495.4	1458.8	1422.5	1386.5

O=Cc1ccco1 [2-furaldehyde] + CCCCO
Conditions	mass density, 283.15 K [kg/m3]	mass density, 293.15 K [kg/m3]	mass density, 303.15 K [kg/m3]	mass density, 313.15 K [kg/m3]	speed of sound, 283.15 K [m/s]	speed of sound, 293.15 K [m/s]	speed of sound, 303.15 K [m/s]	speed of sound, 313.15 K [m/s]
x1 = 0.0501	833.74	825.93	818	809.97	1301.8	1267.2	1233	1199.2
x1 = 0.1	850.14	842.12	833.98	825.71	1310.6	1275.9	1241.6	1207.7
x1 = 0.15	866.88	858.65	850.29	841.84	1319.6	1285	1250.5	1216.4
x1 = 0.1999	883.58	875.14	866.67	858.15	1328.7	1293.9	1259.3	1225.2
x1 = 0.2499	900.71	892.12	883.46	874.76	1337.3	1302.9	1268.4	1234.2
x1 = 0.3	917.89	909.1	900.31	891.55	1346.9	1312.1	1277.6	1243.3
x1 = 0.4	953.02	943.94	934.84	925.74	1365.5	1330.9	1296.4	1262.1
x1 = 0.45	970.58	961.33	952.08	942.85	1375.2	1340.7	1306.1	1271.7
x1 = 0.5	988.52	979.14	969.78	960.42	1385.7	1351	1316.3	1281.9
x1 = 0.5473	1005.5	995.94	986.39	976.86	1395.8	1361	1326.2	1291.7
x1 = 0.6999	1060.86	1050.92	1041.03	1031.18	1429.8	1394.6	1359.3	1324.3
x1 = 0.8	1097.24	1087.06	1076.9	1066.74	1452.2	1416.4	1380.7	1345.3
x1 = 0.8497	1115.11	1104.87	1094.66	1084.43	1463.1	1427.1	1391.3	1355.7
x1 = 0.8999	1133.5	1123.12	1112.74	1102.3	1474.2	1438.1	1401.9	1366.2
x1 = 1	1169.93	1159.33	1148.69	1138.01	1495.4	1458.8	1422.5	1386.5

O=Cc1ccco1 [2-furaldehyde] + CCO
Conditions	mass density, 283.15 K [kg/m3]	mass density, 293.15 K [kg/m3]	mass density, 303.15 K [kg/m3]	mass density, 313.15 K [kg/m3]	speed of sound, 283.15 K [m/s]	speed of sound, 293.15 K [m/s]	speed of sound, 303.15 K [m/s]	speed of sound, 313.15 K [m/s]
x1 = 0.0486	825.34	816.58	807.7	798.67	1221.8	1187.2	1152.6	1118.5
x1 = 0.0995	852.29	843.29	834.16	824.83	1245.2	1210.4	1175.6	1141.2
x1 = 0.15	877.44	868.21	858.83	849.37	1265.6	1230.5	1195.7	1161.2
x1 = 0.2	901.29	891.88	882.29	872.64	1284.6	1249.7	1214.8	1180.2
x1 = 0.25	924.5	914.91	905.24	895.34	1302.7	1267.7	1232.8	1198.2
x1 = 0.3001	946.91	937.18	927.3	917.42	1320.2	1285.2	1250.3	1215.7
x1 = 0.4501	1007.43	997.35	987.26	977.03	1367.1	1331.9	1296.9	1262.3
x1 = 0.6501	1076.56	1066.08	1055.65	1045.07	1421.3	1385.7	1350.4	1315.4
x1 = 0.7007	1091.79	1081.25	1070.76	1060.22	1433.5	1398	1362.5	1327.2
x1 = 0.7498	1105.77	1095.26	1084.63	1074.13	1444.7	1409.1	1373.4	1338
x1 = 0.8003	1119.65	1109.04	1098.47	1087.81	1455.7	1419.9	1384.2	1348.8
x1 = 0.8503	1132.81	1122.12	1111.5	1100.88	1466.4	1430.6	1394.6	1358.8
x1 = 0.9004	1145.37	1134.68	1124.08	1113.48	1476.6	1440.3	1404.2	1368.5
x1 = 0.9498	1157.85	1147.23	1136.49	1125.72	1486.3	1450.1	1413.8	1377.8
x1 = 1	1169.93	1159.33	1148.69	1138.01	1495.4	1458.8	1422.5	1386.5
